Experimental data published in patent US7465751B2 (priority 2002, dated 2008).

What was measured:
M2 muscarinic receptor = M2 muscarinic receptor (Rattus norvegicus, UniProt P10980); type: binding
M3 muscarinic receptor = M3 muscarinic receptor (Rattus norvegicus, UniProt P08483); type: binding
Chain of M3 muscarinic receptor (P08483 whole entry): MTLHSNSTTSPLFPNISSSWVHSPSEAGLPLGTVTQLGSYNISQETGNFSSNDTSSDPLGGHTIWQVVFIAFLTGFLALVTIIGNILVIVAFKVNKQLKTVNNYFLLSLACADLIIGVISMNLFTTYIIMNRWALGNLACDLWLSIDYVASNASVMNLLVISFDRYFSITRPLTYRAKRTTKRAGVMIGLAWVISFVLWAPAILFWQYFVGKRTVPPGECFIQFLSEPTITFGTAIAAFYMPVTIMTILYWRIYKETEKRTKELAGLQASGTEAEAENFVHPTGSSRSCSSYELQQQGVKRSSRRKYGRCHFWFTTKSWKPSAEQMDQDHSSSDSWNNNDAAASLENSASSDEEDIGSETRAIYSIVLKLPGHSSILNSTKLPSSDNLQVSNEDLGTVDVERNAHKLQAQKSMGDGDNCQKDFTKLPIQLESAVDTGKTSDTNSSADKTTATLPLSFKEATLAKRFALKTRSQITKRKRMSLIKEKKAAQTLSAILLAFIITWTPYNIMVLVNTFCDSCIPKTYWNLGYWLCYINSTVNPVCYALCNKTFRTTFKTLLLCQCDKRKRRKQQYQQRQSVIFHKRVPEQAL

Chain of M2 muscarinic receptor (P10980 whole entry): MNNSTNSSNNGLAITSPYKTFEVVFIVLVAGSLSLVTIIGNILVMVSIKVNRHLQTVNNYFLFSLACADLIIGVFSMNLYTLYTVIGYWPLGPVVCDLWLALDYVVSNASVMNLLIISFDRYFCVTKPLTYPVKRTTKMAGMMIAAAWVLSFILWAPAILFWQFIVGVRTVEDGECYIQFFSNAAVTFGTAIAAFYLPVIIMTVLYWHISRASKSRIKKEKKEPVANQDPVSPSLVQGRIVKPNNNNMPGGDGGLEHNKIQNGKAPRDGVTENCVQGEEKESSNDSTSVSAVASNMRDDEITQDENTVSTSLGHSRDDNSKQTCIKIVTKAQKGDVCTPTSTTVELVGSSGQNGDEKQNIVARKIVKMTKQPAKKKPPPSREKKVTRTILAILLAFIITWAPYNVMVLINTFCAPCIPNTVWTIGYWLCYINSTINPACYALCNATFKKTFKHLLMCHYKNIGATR

(3S)-1-[(phenylacetyl)pyrrolidin-3-yl]cyclopentyl(hydroxy)phenyl acetate [Compound No. 11]
Receptor Binding Assay M2 PKi (M2 muscarinic receptor): <6 | Receptor Binding Assay M3 pki (M3 muscarinic receptor): <6
